Experimental data taken from US20210330741A1, “POLYPEPTIDE THERAPEUTICS AND USES THEREOF” (BOARD OF REGENTS, THE UNIVERSITY OF TEXAS SYSTEM, priority 2015, published 2021).
Where no end group is shown, it is not given here.

Format: physicochemical
Experimental: Formulation preparation—Lyophilized cake of the CSP 7 mer was prepared using lyophilization. Five hundred μg/mL of the CSP 7 mer solution was prepared as follows: the peptide powder was dissolved in DPBS with minimal volume of ammonium hydroxide (pH 7-8) and 1.5% w/v of mannitol was added in to the solution. The solution was sterile filtered using 0.2 μm SFCA sterile syringe filter (Corning Inc., Corning, N.Y.). Effect of filtration was also tested. One milliliter of the filtrate was filled into a borosilicate glass vial and lyophilized using a VirTis Advantage Lyophilizer (VirTis Company Inc., Gardiner, N.Y.). Lyophilization cycle parameters were set as outlined in Table 2. Primary drying time was varied by number of samples. Nebulization study of the CSP 7 mer peptide—Lyophilized peptide was reconstituted with sterile water for injection (500 μg/mL). […] The condensate of each sample was collected in a polypropylene tube and kept at 5° C. until analyzed. The amount of peptide in each sample was analyzed using high performance liquid chromatography (HPLC) and the degradation products was detected using liquid chromatography mass spectroscopy (LC/MS). Chromatographic conditions—Samples were analyzed using a Dionex 3000 high performance liquid chromatography (HPLC) system (Thermo Fisher Scientific, Fair Lawn, N.J.) with a wavelength of 220 nm. […]

percent recovery of the peptide (chemical assay, % of peptide remaining): did not have an influence
Substance: FTTFTVT [CSP-7, FTTFTVT]
